# From patent US20150119399A1, “BETA-CELL REPLICATION PROMOTING COMPOUNDS AND METHODS OF THEIR USE” (President and Fellows of Harvard College, priority 2012, published 2015)
# “Also recorded” adds a separate entry of the source. Like-named read-outs stand apart in the source and are kept apart here.
# Tests used:
# [1] = test system: beta-cells; assay: beta-cell replication in dissociated rat islet cells (PDX-1/ki-67 imaging); assay type: cell-based; details: compound for 48 hours, relative to vehicle/DMSO control
# Experimental: (§1) Rat islets were isolated and plated as previously described. In brief, rat islets were disassociated using 0.25% trypsin to obtain single cell suspension with occasional clusters of 2-3 cells. These cells were then plated in a 96-well format at a density of 80 k cells/well. The wells were pre-treated with conditioned media produced by the rat bladder carcinoma cell line 804G. After 48-hours, the cells were treated with compound at the indicated concentration or vehicle alone for 48 hours. The cells were then fixed and stained as previously described for the beta-cell marker PDX-1 and the replication marker ki-67. The beta-cell replication rate (the percentage of PDX-1^+ Cells that co-expressed ki-67) was quantified via automated imaging acquisition and analysis using a Cellomic ArrayScan. Each experimental was performed in replicas of four. p-values indicate a 2-tailed T-Test.
# (§2) To quantify beta-cell replication rate, cells were identified as beta-cells if the contained both nuclear PDX-1 expression and cytoplasmic insulin staining. Replicating beta-cells were identified by the co-staining for ki-67. Alpha-cell replication was determined by determining the fraction of alpha-cells that co-expressed ki67. An alpha-cell was defined by the presence of cytoplasmic glucagon staining and the absence of nuclear PDX-1 staining. The fraction of dividing alpha-cells was determined by the proportion of alpha cells that co-expressed ki-67.
# [2] = test system: alpha-cells; assay: alpha-cell replication in dissociated rat islet cells (glucagon/ki-67 imaging); assay type: cell-based; details: compound for 48 hours
# Experimental: as §1, §2
# [3] = test system: human islets; assay: in vitro islet insulin secretion assay, human islets; assay type: cell-based
# [4] = test system: wild-type mice; assay: glucose tolerance in wild-type mice; assay type: in vivo, mouse
# [5] = test system: diabetic DB mice; assay: glucose tolerance in diabetic DB mice; assay type: in vivo, mouse; details: for glucose tolerance: compound by itself
# [6] = molecular target: recombinant PDE5 (Homo sapiens, UniProt O76074); details: in vitro selectivity assay using recombinant PDE
# Description: Rows list the PDE inhibitors. Columns list the recombinant human PDE enzymes.
# [7] = test system: wild-type mice; assay: plasma GLP-1 levels in vivo; details: 30 minutes after treatment, 0.3 mg/kg Tadalafil, 0.25 mg/kg Dipyridamole, 0.45 mg/kg Vardenafil
# [8] = test system: GLP-1R signaling; assay: glucose tolerance via GLP-1R signaling; details: FIGS. 15A-15C
# [9] = test system: isolated rat islets; assay: in vitro islet insulin secretion assay, rat islets; details: for islet insulin secretion: isolated rat islets
# [10] = test system: primary intestinal crypt culture; assay: endogenous GLP-1 secretion in primary intestinal crypt culture; details: compared to control
# [11] = test system: diet-induced obesity (DIO) mice; assay: glucose tolerance in diet-induced obesity (DIO) mice; assay type: in vivo; details: diet-induced obesity (DIO) mouse model of human diabetes
# [12] = plasma insulin levels in vivo after intraperitoneal glucose; details: 30 minutes after treatment and intraperitoneal (IP) delivery of glucose, compared to DMSO
# [13] = co-administered with DPP-4 inhibitor Sitagliptin, wild-type mice (FIG. 11), Tadalafil data not shown
# [14] = wild-type mice, compound by itself
# [15] = wild-type mice, in combination with Exendin-4
SMILES,beta-cell replication (percentage of PDX-1+ cells that co-expressed ki-67) [1],alpha-cell replication (fraction of alpha-cells that co-expressed ki67) [2],"glucose tolerance / blood glucose levels [4, 13]","glucose tolerance [4, 14]","glucose tolerance / blood glucose levels [4, 15]",plasma GLP-1 levels [7],glucose tolerance via GLP-1R signaling [8],islet insulin secretion [9],other results
CN(C(=O)CCCOc1ccc2[nH]c(=O)ccc2c1)C1CCCCC1 [Cilostamide],enhanced beta-cell replication,enhanced alpha-cell replication,–,–,–,–,–,–,–
"OCCN(CCO)c1nc(N2CCCCC2)c2nc(N(CCO)CCO)nc(N3CCCCC3)c2n1 [Dipyridamole, 2,6-bis-(diethanolamino)-4,8-dipiperidino-(5,4-d)-pyrimidine]",enhanced beta-cell replication; also recorded: double replication effect,does not; also recorded: did not,acts in concert with dipeptidyl peptidase-4 (DPP-4) inhibitor Sitagliptin to improve glucose tolerance; also recorded: act in concert with Sitagliptin to improve glucose tolerance and lower blood glucose levels,enhances glucose tolerance,enhances glucose tolerance; also recorded: acts additively with Exendin-4 to lower blood glucose levels,significantly increase plasma GLP-1 levels,improve glucose tolerance via GLP-1R signaling,significantly enhanced insulin secretion,"beta-cell replication (percentage of PDX-1+ cells that co-expressed ki-67) ([1]; listed as Dioyridamole): enhanced beta-cell replication; islet insulin secretion [3]: significantly enhanced insulin secretion; effect of Exendin-4 on glucose-stimulated insulin secretion ([3]; in combination with Exendin-4): enhances the effect of Exendin-4 on glucose-stimulated insulin secretion; islet insulin secretion ([3]; listed as dipyridamole): enhances insulin secretion; glucose tolerance ([4]; wild-type mice, compound by itself, listed as dipyridamole): improves glucose tolerance; glucose tolerance / blood glucose levels ([4]; wild-type mice, in combination with Exendin-4, listed as dipyridamole): enhances glucose tolerance; glucose tolerance ([4]; wild-type mice, oral administration): improves glucose tolerance; glucose tolerance [5]: enhances glucose tolerance; glucose tolerance ([5]; listed as dipyridamole): improves glucose tolerance; glucose tolerance / blood glucose levels ([5]; in combination with Exendin-4): enhances glucose tolerance; also recorded: acts additively with Exendin-4 to lower blood glucose levels; glucose tolerance / blood glucose levels ([5]; in combination with Exendin-4, listed as dipyridamole): enhances glucose tolerance; inhibition of PDE5 (inhibitor class) [6]: effective inhibitor (the inhibitor exhibits at least 50% inhibition of enzymatic activity in an in vitro selectivity assay using a recombinant PDE); islet insulin secretion ([9]; listed as dipyridamole): enhances insulin secretion; effect of Exendin-4 on glucose-stimulated insulin secretion ([9]; rat islets, in combination with Exendin-4): enhances the effect of Exendin-4 on glucose-stimulated insulin secretion; endogenous GLP-1 secretion [10]: at least about twice"
"CN1CC(=O)N2[C@H](c3ccc4c(c3)OCO4)c3[nH]c4ccccc4c3C[C@@H]2C1=O [Tadalafil, (6R-trans)-6-(1,3-benzodioxol-5-yl)-2,3,6,7,12,12a-hexahydro-2-methyl-pyrazino[1′,2′:1,6]pyrido[3,4-b]indole-1,4-dione]",did not increase beta-cell replication,–,act in concert with Sitagliptin to improve glucose tolerance and lower blood glucose levels,improves glucose tolerance,acts additively with Exendin-4 to lower glucose levels,significantly increase plasma GLP-1 levels,improve glucose tolerance via GLP-1R signaling,do not enhance islet insulin secretion; also recorded: Neither Tadalafil (FIG. 4A) nor Vardenafil (FIG. 4B) significantly enhanced insulin secretion,glucose tolerance [11]: improves glucose tolerance; plasma insulin levels [12]: increased plasma insulin levels; also recorded: significantly increase plasma insulin levels
COc1cc2c(cc1OC)-c1c/c(=N\c3c(C)cc(C)cc3C)n(C)c(=O)n1CC2 [Trequinsin],enhanced beta-cell replication,enhanced alpha-cell replication,–,–,–,–,–,–,–
"COc1cc(-c2ccc(=O)[nH]n2)ccc1OC(F)F [Zardaverine, 6-[4-(Difluoromethoxy)-3-methoxyphenyl]-3(2H)-pyridazinone]",enhanced beta-cell replication,enhanced alpha-cell replication,–,–,–,–,–,–,–
